{"source": "patent US10533231B2", "about": "“Artificial bioluminescent enzyme” (NATIONAL INSTITUTE OF ADVANCED INDUSTRIAL SCIENCE AND …, priority 2012, dated 2020)", "molecules": {"B1": {"name": "A16-KDEL: ALuc16 with KDEL, localized in the endoplasmic reticulum, SEQ ID NO: 18 (protein)", "chain": "MMGIKVLFALICFALVQANPTENKDDIDIVGVEGKFGTTDLETDLFTIVEDMNVISRDTDVDANRADRGRRGKLPGKKLPLEVLKELEANAQKAGCTRGCLICLSHIKCTAKMKKWLPGRCESWEGDKETGQGGIGEAIVDIPEIPGFKDLEPMEQFIAQVDLCVDCTTGCLKGLANVKCSDLLKKWLPSRCATFASKIQAQVDKIKGAGGSKDEL", "modifications": "KDEL ER retention signal; Synthetic KDEL-linked ALuc16"}}, "key": {"[1]": {"system": "EB3 cells expressing cSimgr13", "experiment": "Stress hormone sensitivity of ES cells expressing cSimgr13 (Example 1-17)", "type": "cell-based", "conditions": "10^−5 M, 20 minutes", "method": "Novel ES cells expressing cSimgr13, which is an integrated-molecule-format bioluminescent probe containing the ALuc of Example 10 in its frame structure were established to visualize stress hormone sensitivity (FIG. 17). First, EB3 cells, which are feeder-free embryonic stem cells (ES), were cultured in a 10 cm dish, and then a pcDNA3.1 (+) vector encoding cSimgr13 was introduced into the EB3 cells. In the presence of G418, transformed cells stably expressing cSimgr13 were established.\nOne day after the subculturing of the transformed cells in a microslide, some of the cells in the wells were used as a control (0.1% DMSO), and the others were stimulated with 10^−5 M stress hormone (cortisol) for 20 minutes. Subsequently, after lysis, the cells were illuminated using a substrate-containing assay buffer in accordance with the protocol of luminescence assay kit produced by Promega, and the luminescence intensity was measured using an LAS-4000."}, "[2]": {"target": "estrogen receptor (ER LBD) (Homo sapiens, UniProt P03372)", "sequence (P03372 311-547 limits assumed, species assumed)": "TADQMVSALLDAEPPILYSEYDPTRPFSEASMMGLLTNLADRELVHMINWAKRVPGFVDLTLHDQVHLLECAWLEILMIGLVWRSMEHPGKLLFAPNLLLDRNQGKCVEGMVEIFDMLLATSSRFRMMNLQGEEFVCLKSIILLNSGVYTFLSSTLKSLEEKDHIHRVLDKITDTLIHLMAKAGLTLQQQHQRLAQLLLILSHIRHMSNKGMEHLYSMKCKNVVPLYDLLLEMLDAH", "conditions": "10^−5 M, 20 minutes, COS-7 cells with pSimer-r2, C16 one-shot buffer"}, "COS-7 cells [3]": {"system": "COS-7 cells", "experiment": "Toxicity of STS with luminescence measurement device and luminometer (Example 1-11)", "type": "cell-based, monkey", "conditions": "STS 1 μM, 10 minutes, membrane-localized probe", "method": "(§1) Using the luminescence measurement device, the toxicity of a cell death-inducing chemical substance (STS) was measured (see FIG. 11). Monkey kidney-derived COS-7 cells were scattered in a commercially available microslide for cell culturing (produced by ibidi), and the cells were cultured until 90% of the microslide area was filled with the cells. The cells were transfected with a plasmid encoding a bioluminescence probe, followed by culturing for another 24 hours. The cells cultured in the microslide were stimulated with or without STS (final concentration: 1 μM) for 10 minutes (FIG. 11B).\nThe luminescence measurement was performed in the following manner. The microslide was washed once with an HBSS buffer, and a substrate-containing HBSS buffer (100 μL) was simultaneously introduced into each microslide channel, and the microslide was immediately fixed to the luminescent measurement device. […] The luminescence value was measured by changing the channels and the filters (three-second light condensation, n=3, see FIG. 11C)."}, "COS-7 cells [4]": {"system": "COS-7 cells", "experiment": "Toxicity of STS by change in luminescence spectrum (Example 1-12)", "type": "cell-based, monkey", "conditions": "STS (1 μM) stimulation vs without, 10 minutes", "method": "as §1, with “device of the present invention,” for “device,”, “measured based on changes in luminescence spectrum” for “measured”, “12). First, monkey” for “11). Monkey”, “for” for “for another”, “[…])” for “μM)”, “minutes.” for “minutes (FIG. 11B).”\nThe luminescence measurement was performed in the following manner. The microslide was washed once with an […] buffer, and a substrate-containing HBSS buffer (100 μL) was simultaneously introduced into each slide channel, and the microslide was mounted on the measurement device. After the device was covered with a mirror cap, the device was further mounted on a conventional spectrum meter (AB-1850; ATTO) (FIG. 12A). The luminescence spectrum from each channel was measured (two-minute light condensation, n=3, see FIG. 12B)."}, "COS-7 cells [5]": {"system": "COS-7 cells", "experiment": "Cytotoxic measurement using bioluminescent capsule containing ALuc16 (Example 1-13)", "type": "cell-based", "conditions": "stimulated for two minutes, capsule SEQ ID NO: 19, LAS-4000", "method": "The cytotoxicity of a chemical substance was measured using the bioluminescent capsule (SEQ ID NO: 19) containing ALuc 16 in its frame structure (FIG. 13). First, COS-7 cells were cultured in a 6-channel microslide, and a gene encoding SEQ ID NO: 19 was introduced into the cells, followed by culturing for another 16 hours. Subsequently, the cells were stimulated for two minutes with or without the cytotoxic substance (STS), and the luminescence image showing a bioluminescence intensity difference in a substrate-containing solution was evaluated using an LAS-4000 (FujiFilm)."}, "[6]": {"target": "T1, integrated-molecule-format bioluminescent probe with androgen receptor (Homo sapiens, UniProt P10275)", "T1 construct": "an androgen receptor (AR LED) was inserted therebetween; expressed in transfected cells; host or cells: COS-7", "T1 sequence (P10275 669-900 limits assumed)": "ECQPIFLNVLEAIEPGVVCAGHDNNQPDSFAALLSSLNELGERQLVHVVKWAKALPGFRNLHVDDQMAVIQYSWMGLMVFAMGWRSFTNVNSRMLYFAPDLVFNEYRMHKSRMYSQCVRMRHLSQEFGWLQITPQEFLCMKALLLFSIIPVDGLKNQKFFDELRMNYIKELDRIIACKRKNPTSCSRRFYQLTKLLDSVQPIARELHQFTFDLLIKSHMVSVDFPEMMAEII", "experiment": "Effect of adding halogen ions, androgen probe (Example 2-5)", "type": "cell-based", "conditions": "about 100 mM", "method": "After 16-hour incubation in a CO2 incubator, 50 μL of a C3 solution was added to each well to allow for cell lysis for 20 minutes."}, "[7]": {"system": "artificial luciferase (ALuc)", "experiment": "Search for assay buffer compatible with C3 (Example 2-2)", "type": "cell-based", "conditions": "C3 lysis; 8- and 16-minute point", "method": "After 16-hour incubation in a CO2 incubator, 50 μL of a C3 solution was added to each well to allow for cell lysis for 20 minutes. Substrate-containing assay buffers shown in FIG. 24 were individually added simultaneously (50 μL each) to the lysate, and the relative luminescence intensities were immediately measured with an LAS-4000 (Fujifilm). After the substrate-containing assay buffers were further added, the luminescence at the 8- and 16-minute point was measured to examine the luminescence stability."}, "[8]": {"experiment": "Luminescent capsule probe, luminescence stability and intensity (Example 1-7)", "type": "cell-based", "conditions": "localized in the endoplasmic reticulum", "excerpt": "A “luminescent capsule” probe containing the artificial luciferase (ALuc) of the present invention in its frame structure was developed (FIG. 7). The basic molecular structure of the luminescent capsule of the present invention comprises an extracellular secretion signal (SP), ALuc, a suitable cargo protein (peptide), and a membrane localization signal. Because of the SP, the probe is first transferred to the endoplasmic reticulum, and then transferred from the endoplasmic reticulum to the plasma membrane. This probe is designed to finally localize in the plasma membrane by the function of MLS (FIG. 7 AB).\nThe luminescent capsule has the ability to localize a fluorescence protein (mPlum), other luciferases (RLuc8.6-535), and a peptide (DEVD sequence, etc.) in the plasma membrane. […] The luminescent reaction speed of the luminescent capsule after substrate injection was faster than those of other molecules (FIG. 7D). Further, the luminescent capsule containing a […] (SEQ ID NO: 19) was confirmed to have a different luminescent reaction speed according to the presence or absence of a cell death-inducing chemical substance (STS) (FIG. 7E). The luminescence stability of the luminescent capsule was also confirmed by using a microplate reader for luminescence measurement (FIG. 7F)."}, "COS-7 cells [9]": {"system": "COS-7 cells", "experiment": "Living cell imaging (Example 1-20)", "type": "cell-based", "conditions": "HBSS buffer containing substrate", "method": "First, COS-7 cells were cultured in a microslide produced by ibidi. After the cells were raised to a certain level, the following genes were transferred to the cells in the channels. Channel group 1: pcDNA3.1 plasmid having a gene encoding a luminescent enzyme derived from Renilla reniformis (RLuc8.6-535); Channel group 2: pcDNA3.1 plasmid having a gene encoding A16-KDEL; and Channel group 3: pcDNA3.1 plasmid having a gene encoding a luminescent capsule based on ALuc16 (i.e., A16-MLS).\nAfter gene transfer, culturing was performed for another 16 hours. Immediately before imaging, the medium was substituted with an HBSS buffer containing a substrate, and the luminescence image obtained after the substitution was measured using an LAS-4000 (FujiFilm)."}, "COS-7 cells [10]": {"system": "COS-7 cells", "experiment": "Luminescence image of COS-7 cell lysate on microslide (Example 1-20)", "type": "cell-based", "conditions": "Promega lysate and assay buffer", "method": "Similarly, COS-7 cells were cultured in a microslide produced by ibidi. After the cells were raised to a certain level, the following genes were transferred to the cells in the channels. Channel group 1: pcDNA3.1 plasmid having a gene encoding Cypridina luciferase; Channel group 2: pcDNA3.1 plasmid having a gene encoding A16-KDEL; and Channel group 3: pcDNA3.1 plasmid having a gene encoding a luminescent capsule based on A16 (i.e., A16-MLS).\nAfter gene transfer, culturing was performed for another 16 hours. 20 minutes before imaging, 40 μL of a lysate buffer produced by Promega was added, and the resultant was allowed to stand for 20 minutes. Further, a substrate-containing assay buffer produced by Promega was added to the medium of each channel, and the luminescence image obtained after the addition was measured using an LAS-4000 (FujiFilm)."}}}
{"molecule": "C[C@]12CCC(=O)C=C1CC[C@@H]1[C@@H]2[C@@H](O)C[C@@]2(C)[C@H]1CC[C@]2(O)C(=O)CO", "note": "[cortisol]", "values": [{"measurement": "luminescence vs control (0.1% DMSO)", "setting": "[1]", "result": "stronger luminescence than the control"}]}
{"molecule": "4-hydroxytamoxifen [OHT]", "values": [{"measurement": "luminescence higher than the background", "setting": "[2]", "result": "about 5 folds"}]}
{"molecule": "CN[C@@H]1C[C@H]2O[C@@](C)([C@@H]1OC)n1c3ccccc3c3c4c(c5c6ccccc6n2c5c31)C(=O)NC4", "note": "[STS]", "values": [{"measurement": "increase of luminescence intensity", "setting": "COS-7 cells [3]", "result": "about 75%"}, {"measurement": "change of luminescence spectrum", "setting": "COS-7 cells [4]", "result": "increase in the luminescence intensity in the full wavelength"}, {"measurement": "luminescence intensity with vs without cytotoxic substance", "setting": "COS-7 cells [5]", "result": "two folds higher"}]}
{"molecule": "[Br-].[K+]", "note": "[KBr]", "values": [{"measurement": "effect of halogen ion addition", "setting": "[6]", "result": "excellent results"}]}
{"molecule": "bovine serum albumin [BSA]", "values": [{"measurement": "luminescence stability with assay buffer", "setting": "[7]", "result": "the luminescence intensity and luminescence stability were poor"}]}
{"molecule": "B1", "values": [{"measurement": "luminescence intensity", "setting": "[8]", "result": "poor luminescence intensity"}, {"measurement": "luminescence image of living cells", "setting": "COS-7 cells [9]", "result": "strong luminescence image"}, {"measurement": "luminescence of cell lysate", "setting": "COS-7 cells [10]", "result": "strong luminescence"}]}
